Like-named read-outs stand apart in the source and are kept apart here.
Legend:
Bcl-2 = details: Literatures 13 through 16, cited from earlier work
HHV-6 HST strain = experiment: SITH-1 expression in HHV-6-infected U373 cells pre-reacted with heparin or anti-heparan sulfate peptide; type: cell-based; details: cells reacted with 10 unit/mL Novo-Heparin at 4° C. for 1 hour before infection; MOI 3; 48 hours
Procedure: U373 astrocytoma cells were removed with use of trypsin-EDTA, and then a medium (10% FBS-containing DMEM) was added, so that the resultant cells were at 1×10^5 cell/mL. Then, the U373 cells were reacted with 10 unit/mL of Novo-Heparin (Mochida Pharmaceutical Co., Ltd.) or 0.1 mM of anti-3-OS Heparan sulfate (HS) peptide trifluoroacetate salt (Sigma-Aldrich) at 4° C. for 1 hour. The U373 cells were also reacted only with a medium as a control at 4° C. for 1 hour. The resultant cells were washed 3 times with a medium. Then, the U373 cells thus washed were infected with a HHV-6 HST strain virus fluid (2.9×10^6 ffu/ml) at a MOI of 3 by centrifugation. Then, the infected cells were cultured at 37° C. for 48 hours in a CO2 incubator.
From the resultant infected cells, RNA was purified by use of RNeasy Mini Kit (Qiagen) in accordance with the standard protocol. Then, cDNA was synthesized by use of a PrimeScript RT Reagent Kit (Takara Bio). Finally, expression levels of SITH-1 and GAPDH mRNA were measured by a method similar to that used in the above (3.1).

[1] = test system: SITH-1/Adv nasal administration mice; experiment: Tail suspension test of SSRI-treated SITH-1/Adv nasal administration mice; type: in vivo; details: 80 mg/L Fluoxetine solution as drinking water from 2 weeks before nasal SITH-1/Adv; test 7 days after nasal administration, 10 minutes
Procedure: 8-week-old C57BL/6NCrSlc mice were raised at a room temperature of 24±1° C. and with lights on for 12 hours and off for 12 hours. After each of the mice was anesthetized with use of isoflurane, SITH-1/Adv or empty/Adv in an amount equivalent to 2.5×10^7 ifu was dropped onto the nasal cavity, and was then sucked along with breathing. Then, the mice were returned to raising cages.
7 days after the nasal administration of SITH-1/Adv or empty/Adv, a tail suspension test was carried out for 10 minutes. A period of immobility time was measured with use of TailSuspScanTopScan (CleverSys, Inc.). The tail suspension test was carried out by suspending each mouse by taping the tail 1 cm from the end. […] In the experiment, 30 mice were used in each group.
Then, it was studied whether or not an SSRI (selective serotonin reuptake inhibitor), which is an antidepressant, would restrict an increase in immobility time, the increase being caused by the nasal administration of the SITH-1/Adv. 80 mg/L of Fluoxetine solution as drinking water was given to 6-week-old mice (see Literature 18), and then the mice were raised for 2 weeks. Then, SITH-1/Adv was nasally administered. 7 days after the nasal administration, a tail suspension test was carried out for 10 minutes. […] Statistical significance (* indicates P<0.05, ** indicates P<0.01, and *** indicates P<0.001) was calculated by use of the Mann-Whitney U-test.

| Compound | Bcl-2 expression in the brain (Bcl-2) | other results |
| --- | --- | --- |
| CN(C)CCCN1c2ccccc2CCc2ccccc21 [imipramine] | promote Bcl-2 expression in the brain | – |
| CN(C)CCC=C1c2ccccc2CCc2ccccc21 [amitriptyline] | promote Bcl-2 expression in the brain | – |
| COc1ccc(C(CN(C)C)C2(O)CCCCC2)cc1 (stereo not shown) [venlafaxine] | promote Bcl-2 expression in the brain | – |
| N[C@@H]1C[C@H]1c1ccccc1 (racemic) [tranylcypromine] | promote Bcl-2 expression in the brain | – |
| CCOc1ccccc1OC(c1ccccc1)C1CNCCO1 (stereo not shown) [reboxetine] | promote Bcl-2 expression in the brain | – |
| heparin | – | SITH-1 expression in U373 cells (HHV-6 HST strain): restricted |
| CNCCCN1c2ccccc2CCc2ccccc21 [desipramine] | promote Bcl-2 expression in the brain | – |
| CNCCC(Oc1ccc(C(F)(F)F)cc1)c1ccccc1 (stereo not shown) [Fluoxetine] | promotes Bcl-2 expression | immobility time increases in tail suspension test [1]: restricted; Bcl-2 expression in the brain (Bcl-2; listed as fluoxetine): promote Bcl-2 expression in the brain |

Reference: patent US10067142B2, “Method for diagnosing, treating, or preventing mood disorder” (priority 2014, dated 2018)
